# Measured values published in the supplement of paper PMC11208160.
# Test: recombinant barcode read abundance after kanamycin selection (control-corrected) (log10(CPM+1)); higher = more efficient recombination; sequences stand for … in AGTGCAGAGAAAATCGGCCAGTTTTCTCTGCCTGCAGTCCGCATGCCGT…ATTTATGCAGCGGACTGCCTTTCTCCCAAAGTGATAAACCGGACAGTATCATGGACCGGTTTTCCCGGTAATCCGTATTTGCAAGGTTGGTTTCACT; site = the 11-nt target
# Procedure, shortened: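 IS621 bridge RNA target-binding loops were paired with targets in a pooled library tested in E. coli. After co-electroporation with a donor plasmid, cells were plated in two replicates on chloramphenicol/ampicillin LB agar (control) and on chloramphenicol/ampicillin/kanamycin carrying 0.1 mM IPTG. Barcodes at recombinant junctions were counted as counts per million, averaged and control-corrected to give recombination efficiency. Values are log10(CPM+1).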
row,Sequence,recombinant barcode read abundance (log10)
1,"CGAGCCCATTGGGTTCTAACCTGTTGCTGAG [CGAGCCCCTCA_LTGcore_AT_RTGcore_CT] (site CGAGCCCCTCA) (LTG core: AT, RTG core: CT)",0.104
2,"CGAGCCCCCTGGGTTCTAACCTGTTGCTGGG [CGAGCCCCTCA_LTGcore_CC_RTGcore_CC] (site CGAGCCCCTCA) (LTG core: CC, RTG core: CC)",0.0674
3,"CGAGCCCCTTGGGTTCTAACCTGTTGCTGTA [CGAGCCCCTCA_LTGcore_CT_RTGcore_TA] (site CGAGCCCCTCA) (LTG core: CT, RTG core: TA)",0.68
4,"CGAGCCCGATGGGTTCTAACCTGTTGCTGAG [CGAGCCCCTCA_LTGcore_GA_RTGcore_CT] (site CGAGCCCCTCA) (LTG core: GA, RTG core: CT)",0.157
5,"CGAGCCCGGTGGGTTCTAACCTGTTGCTGCC [CGAGCCCCTCA_LTGcore_GG_RTGcore_GG] (site CGAGCCCCTCA) (LTG core: GG, RTG core: GG)",0.18
6,"CGAGCCCTATGGGTTCTAACCTGTTGCTGAG [CGAGCCCCTCA_LTGcore_TA_RTGcore_CT] (site CGAGCCCCTCA) (LTG core: TA, RTG core: CT)",0.312
7,"CGAGCCCTCTGGGTTCTAACCTGTTGCTGGA [CGAGCCCCTCA_LTGcore_TC_RTGcore_TC] (site CGAGCCCCTCA) (LTG core: TC, RTG core: TC)",0.139
8,"CGCGCCCAGTGGGTTCTAACCTGTTGCGGAG [CGCGCCCCTCC_LTGcore_AG_RTGcore_CT] (site CGCGCCCCTCC) (LTG core: AG, RTG core: CT)",0.0753
9,"CGCGCCCATTGGGTTCTAACCTGTTGCGGAT [CGCGCCCCTCC_LTGcore_AT_RTGcore_AT] (site CGCGCCCCTCC) (LTG core: AT, RTG core: AT)",0.0457
10,"CGCGCCCCTTGGGTTCTAACCTGTTGCGGTC [CGCGCCCCTCC_LTGcore_CT_RTGcore_GA] (site CGCGCCCCTCC) (LTG core: CT, RTG core: GA)",0.041
11,"CGCGCCCGCTGGGTTCTAACCTGTTGCGGAG [CGCGCCCCTCC_LTGcore_GC_RTGcore_CT] (site CGCGCCCCTCC) (LTG core: GC, RTG core: CT)",0.198
12,"CGCGCCCGTTGGGTTCTAACCTGTTGCGGAC [CGCGCCCCTCC_LTGcore_GT_RTGcore_GT] (site CGCGCCCCTCC) (LTG core: GT, RTG core: GT)",0.421
13,"CGCGCCCTCTGGGTTCTAACCTGTTGCGGAG [CGCGCCCCTCC_LTGcore_TC_RTGcore_CT] (site CGCGCCCCTCC) (LTG core: TC, RTG core: CT)",0.264
14,"CGCGCCCTCTGGGTTCTAACCTGTTGCGGGA [CGCGCCCCTCC_LTGcore_TC_RTGcore_TC] (site CGCGCCCCTCC) (LTG core: TC, RTG core: TC)",0.307
15,"CGCGCCCTGTGGGTTCTAACCTGTTGCGGCA [CGCGCCCCTCC_LTGcore_TG_RTGcore_TG] (site CGCGCCCCTCC) (LTG core: TG, RTG core: TG)",0.0883
16,"CGCGCCCTTTGGGTTCTAACCTGTTGCGGAA [CGCGCCCCTCC_LTGcore_TT_RTGcore_TT] (site CGCGCCCCTCC) (LTG core: TT, RTG core: TT)",0.156
17,"CGGTCCCAGTGGGTTCTAACCTGTTGCCACT [CGGTCCCCTTG_LTGcore_AG_RTGcore_AG] (site CGGTCCCCTTG) (LTG core: AG, RTG core: AG)",0.258
18,"CGGTCCCCTTGGGTTCTAACCTGTTGCCAAC [CGGTCCCCTTG_LTGcore_CT_RTGcore_GT] (site CGGTCCCCTTG) (LTG core: CT, RTG core: GT)",0.0684
19,"CGGTCCCCTTGGGTTCTAACCTGTTGCCAAT [CGGTCCCCTTG_LTGcore_CT_RTGcore_AT] (site CGGTCCCCTTG) (LTG core: CT, RTG core: AT)",0.133
20,"CGGTCCCCTTGGGTTCTAACCTGTTGCCACT [CGGTCCCCTTG_LTGcore_CT_RTGcore_AG] (site CGGTCCCCTTG) (LTG core: CT, RTG core: AG)",0.0728
21,"CGGTCCCGCTGGGTTCTAACCTGTTGCCAAG [CGGTCCCCTTG_LTGcore_GC_RTGcore_CT] (site CGGTCCCCTTG) (LTG core: GC, RTG core: CT)",0.313
22,"CGGTCCCGCTGGGTTCTAACCTGTTGCCAGC [CGGTCCCCTTG_LTGcore_GC_RTGcore_GC] (site CGGTCCCCTTG) (LTG core: GC, RTG core: GC)",0.475
23,"CGGTCCCGGTGGGTTCTAACCTGTTGCCACC [CGGTCCCCTTG_LTGcore_GG_RTGcore_GG] (site CGGTCCCCTTG) (LTG core: GG, RTG core: GG)",0.213

row,Sequence,recombinant barcode read abundance (log10)
1,"CGGTCCCTATGGGTTCTAACCTGTTGCCAAG [CGGTCCCCTTG_LTGcore_TA_RTGcore_CT] (site CGGTCCCCTTG) (LTG core: TA, RTG core: CT)",0.0831
2,"GAGCCCAAGTGGGTTCTAACCTGTTGCCTCT [GAGCCCACTAG_LTGcore_AG_RTGcore_AG] (site GAGCCCACTAG) (LTG core: AG, RTG core: AG)",0.229
3,"GAGCCCACATGGGTTCTAACCTGTTGCCTAG [GAGCCCACTAG_LTGcore_CA_RTGcore_CT] (site GAGCCCACTAG) (LTG core: CA, RTG core: CT)",0.304
4,"GAGCCCACTTGGGTTCTAACCTGTTGCCTCC [GAGCCCACTAG_LTGcore_CT_RTGcore_GG] (site GAGCCCACTAG) (LTG core: CT, RTG core: GG)",0.136
5,"GAGCCCACTTGGGTTCTAACCTGTTGCCTGA [GAGCCCACTAG_LTGcore_CT_RTGcore_TC] (site GAGCCCACTAG) (LTG core: CT, RTG core: TC)",0.207
6,"GAGCCCACTTGGGTTCTAACCTGTTGCCTGC [GAGCCCACTAG_LTGcore_CT_RTGcore_GC] (site GAGCCCACTAG) (LTG core: CT, RTG core: GC)",0.3
7,"GAGCCCACTTGGGTTCTAACCTGTTGCCTGG [GAGCCCACTAG_LTGcore_CT_RTGcore_CC] (site GAGCCCACTAG) (LTG core: CT, RTG core: CC)",0.911
8,"GAGCCCACTTGGGTTCTAACCTGTTGCCTGT [GAGCCCACTAG_LTGcore_CT_RTGcore_AC] (site GAGCCCACTAG) (LTG core: CT, RTG core: AC)",0.522
9,"GAGCCCACTTGGGTTCTAACCTGTTGCCTTC [GAGCCCACTAG_LTGcore_CT_RTGcore_GA] (site GAGCCCACTAG) (LTG core: CT, RTG core: GA)",0.518
10,"GAGCCCAGCTGGGTTCTAACCTGTTGCCTAG [GAGCCCACTAG_LTGcore_GC_RTGcore_CT] (site GAGCCCACTAG) (LTG core: GC, RTG core: CT)",0.266
11,"GAGCCCATGTGGGTTCTAACCTGTTGCCTCA [GAGCCCACTAG_LTGcore_TG_RTGcore_TG] (site GAGCCCACTAG) (LTG core: TG, RTG core: TG)",0.995
12,"GAGGCCTCTTGGGTTCTAACCTGTTGCCAAC [GAGGCCTCTTG_LTGcore_CT_RTGcore_GT] (site GAGGCCTCTTG) (LTG core: CT, RTG core: GT)",1.25
13,"GAGGCCTCTTGGGTTCTAACCTGTTGCCAGA [GAGGCCTCTTG_LTGcore_CT_RTGcore_TC] (site GAGGCCTCTTG) (LTG core: CT, RTG core: TC)",0.245
14,"GAGGCCTCTTGGGTTCTAACCTGTTGCCATG [GAGGCCTCTTG_LTGcore_CT_RTGcore_CA] (site GAGGCCTCTTG) (LTG core: CT, RTG core: CA)",0.0789
15,"GAGGCCTGGTGGGTTCTAACCTGTTGCCAAG [GAGGCCTCTTG_LTGcore_GG_RTGcore_CT] (site GAGGCCTCTTG) (LTG core: GG, RTG core: CT)",0.103
16,"GAGGCCTGGTGGGTTCTAACCTGTTGCCACC [GAGGCCTCTTG_LTGcore_GG_RTGcore_GG] (site GAGGCCTCTTG) (LTG core: GG, RTG core: GG)",0.445
17,"GAGTCCAAATGGGTTCTAACCTGTTGCGTTT [GAGTCCACTAC_LTGcore_AA_RTGcore_AA] (site GAGTCCACTAC) (LTG core: AA, RTG core: AA)",0.0227
18,"GAGTCCAACTGGGTTCTAACCTGTTGCGTGT [GAGTCCACTAC_LTGcore_AC_RTGcore_AC] (site GAGTCCACTAC) (LTG core: AC, RTG core: AC)",0.0932
19,"GAGTCCAATTGGGTTCTAACCTGTTGCGTAG [GAGTCCACTAC_LTGcore_AT_RTGcore_CT] (site GAGTCCACTAC) (LTG core: AT, RTG core: CT)",0.156
20,"GAGTCCACCTGGGTTCTAACCTGTTGCGTGG [GAGTCCACTAC_LTGcore_CC_RTGcore_CC] (site GAGTCCACTAC) (LTG core: CC, RTG core: CC)",0.0684
21,"GAGTCCACGTGGGTTCTAACCTGTTGCGTAG [GAGTCCACTAC_LTGcore_CG_RTGcore_CT] (site GAGTCCACTAC) (LTG core: CG, RTG core: CT)",0.114
22,"GAGTCCACTTGGGTTCTAACCTGTTGCGTAT [GAGTCCACTAC_LTGcore_CT_RTGcore_AT] (site GAGTCCACTAC) (LTG core: CT, RTG core: AT)",0.389
